Laboratory results published in PMC8638962, “Opposing Effects of PhoPQ and PmrAB on the Properties of Salmonella enterica serovar Typhimurium: Implications on Resistance to Antimicrobial Peptides” (Biochemistry, 2021).
In brackets after ≈: the same amount, converted by molar mass. Where a SMILES comes first, the peptide text is derived from it. Where no end group is shown, it is not given here. [ ]: non-standard residue; d: D form. The star is where a group is joined. Octanoyl = CCCCCCCC(=O)*

Columns and labels:
[1] = test system: S. enterica serovar Typhimurium 14 028s phoP knockout; format: cell-based; conditions: broth microdilution, serial twofold dilution in MNMM, 18–20 h at 37 °C with agitation, read by visible turbidity
Protocol: (§1) The antimicrobial activity of the peptides was examined in sterile 96-wells plates (Nunc F96 microtiter plates) in a final volume of 100 μL as follows. Aliquots (50 μL) of an overnight suspension-containing bacteria (late-log phase diluted 1:5000) were added to 50 μL of modified N-minimal media (MNMM) containing the peptides in a serial twofold dilution, and antibiotics, if required, to select for the specific mutant. Inhibition of growth was determined by the visibility of turbidity in comparison to blank with no growth after an incubation of 18–20 h at 37 °C with agitation. Antibacterial activity was expressed as the minimal inhibitory concentration (MIC) in which no growth could be observed.
(§2) We investigated both natural and de novo-designed AMPs (Table 1). The list includes (i) the human cathelicidin LL-37, (ii) a de novo-designed 15-mer AMP designated K6L9 and (iii) its D,L-amino acid-containing analogue, D,L-K6L9, and (iv) D,L amino acid histidine derivative, D,L-H6L9, (v) a 12-mer D,L-K5L7 and (vi) its caprylic-acid-conjugated analogue C8-D,L-K5L7, and (vii) the frog antimicrobial peptide Temporin L.[23] These peptides have different net positive charges under the experimental conditions, as well as hydrophobicity (represented by RP-HPLC retention times), as indicated in Table 1. The peptides were tested for their antibacterial activity against WT S. enterica serovar Typhimurium ATCC 14028 (S. typhimurium) and its mutants (Table 2). The minimal inhibitory concentration (MIC) was defined using a broth microdilution antimicrobial assay. S. typhimurium have been widely used for the exploration of bacterial resistance acquired from these two TCSs.[52],[53]

[2] = test system: S. enterica serovar Typhimurium 14 028s PmrAB knockout; format: cell-based; conditions: broth microdilution, serial twofold dilution in MNMM, 18–20 h at 37 °C with agitation, read by visible turbidity
Protocol: as §1, §2

[3] = test system: S. enterica serovar Typhimurium 14 028s wild-type; format: cell-based; conditions: broth microdilution, serial twofold dilution in modified N-minimal media (MNMM), 18–20 h at 37 °C with agitation, read by visible turbidity; WT ATCC 14028
Protocol: as §1, §2

[4] = test system: S. enterica serovar Typhimurium 14 028s phoP and PmrAB knockout; format: cell-based; conditions: broth microdilution, serial twofold dilution in MNMM, 18–20 h at 37 °C with agitation, read by visible turbidity; phoP and PmrAB double knockout
Protocol: as §1, §2

[5] = RP-HPLC retention as measure of hydrophobicity; format: physicochemical; conditions: C18 column, linear gradient 10–90% acetonitrile in water with 0.1% TFA in 40 min, 1.8 mL/min; for retention time: RP-HPLC retention time used as measure of hydrophobicity; for relative hydrophobicity (% ACN): percent of acetonitrile at the retention time, RP-HPLC
From the text: The peptides were synthesized by a solid phase method on a rink amide MBHA resin using an ABI 433A automatic peptide synthesizer (Applied Biosystems). The resin-bound peptides (0.1 mequiv each) were cleaved from the resins by trifluoroacetic acid (TFA), washed with dry ether, and extracted with acetonitrile/water (50% v/v). All peptides were amidated at their C terminus. The peptides were further purified by reverse-phase high-pressure liquid chromatography (RP-HPLC) on a C18 reverse-phase Bio-Rad column (250 × 10 mm^2, 300 Å pore size, 5 μm particle size). A linear gradient of 10–90% acetonitrile in water containing 0.1% TFA (v/v) in 40 min was used at a flow rate of 1.8 mL/min. […] Electrospray mass spectroscopy confirmed their identity.[23]
as §2

| Compound | MIC, phoP-KO [1] [µM] | MIC, pmrAB-KO [2] [µM] | MIC, WT [3] [µM] | MIC, DKO [4] [µM] | retention time [5] [min] | relative hydrophobicity (% ACN) [5] [% ACN] |
| --- | --- | --- | --- | --- | --- | --- |
| CCCCCCCC(=O)N[C@@H](CCCCN)C(=O)N[C@@H](CCCCN)C(=O)N[C@H](CC(C)C)C(=O)N[C@H](CC(C)C)C(=O)N[C@@H](CCCCN)C(=O)N[C@@H](CC(C)C)C(=O)N[C@@H](CC(C)C)C(=O)N[C@H](CC(C)C)C(=O)N[C@@H](CCCCN)C(=O)N[C@H](CC(C)C)C(=O)N[C@@H](CC(C)C)C(=O)N[C@@H](CCCCN)C(N)=O [C8-D,L-K5L7] (Octanoyl-KK[dL][dL]KLL[dL]K[dL]LK-NH2) | 3.125 (≈ 4.93 µg/mL) | 6.25 (≈ 9.85 µg/mL) | 3.125 (≈ 4.93 µg/mL) | 3.125 (≈ 4.93 µg/mL) | 29.1 | 68.2 |
| CC(C)C[C@H](NC(=O)[C@H](CC(C)C)NC(=O)[C@@H](Cc1c[nH]cn1)NC(=O)[C@H](CC(C)C)NC(=O)[C@H](CC(C)C)NC(=O)[C@H](Cc1c[nH]cn1)NC(=O)[C@@H](Cc1c[nH]cn1)NC(=O)[C@@H](CC(C)C)NC(=O)[C@H](CC(C)C)NC(=O)[C@@H](Cc1c[nH]cn1)NC(=O)[C@H](Cc1c[nH]cn1)NC(=O)[C@H](CC(C)C)NC(=O)[C@@H](CC(C)C)NC(=O)[C@H](Cc1c[nH]cn1)NC(=O)[C@@H](N)CC(C)C)C(N)=O [D,L-H6L9] (H-LH[dL]LH[dH]L[dL][dH]HLL[dH]LL-NH2; N-terminus assumed) | 50 (≈ 92.9 µg/mL) | 50 (≈ 92.9 µg/mL) | 100 (≈ 186 µg/mL) | 50 (≈ 92.9 µg/mL) | 29.3 | 68.6 |
| CC(C)C[C@H](NC(=O)[C@H](CCCCN)NC(=O)[C@@H](CC(C)C)NC(=O)[C@@H](CC(C)C)NC(=O)[C@H](CCCCN)NC(=O)[C@@H](N)CCCCN)C(=O)N[C@@H](CC(C)C)C(=O)N[C@H](CC(C)C)C(=O)N[C@@H](CCCCN)C(=O)N[C@H](CC(C)C)C(=O)N[C@@H](CC(C)C)C(=O)N[C@@H](CCCCN)C(N)=O [D,L-K5L7] (H-KK[dL][dL]KLL[dL]K[dL]LK-NH2; N-terminus assumed) | 1.56 (≈ 2.26 µg/mL) | 12.5 (≈ 18.1 µg/mL) | 6.25 (≈ 9.06 µg/mL) | 3.125 (≈ 4.53 µg/mL) | 23.5 | 57 |
| CC(C)C[C@H](NC(=O)[C@H](CC(C)C)NC(=O)[C@@H](CCCCN)NC(=O)[C@H](CC(C)C)NC(=O)[C@H](CC(C)C)NC(=O)[C@H](CCCCN)NC(=O)[C@@H](CCCCN)NC(=O)[C@@H](CC(C)C)NC(=O)[C@H](CC(C)C)NC(=O)[C@@H](CCCCN)NC(=O)[C@H](CCCCN)NC(=O)[C@H](CC(C)C)NC(=O)[C@@H](CC(C)C)NC(=O)[C@H](CCCCN)NC(=O)[C@@H](N)CC(C)C)C(N)=O [D,L-K6L9] (H-LK[dL]LK[dK]L[dL][dK]KLL[dK]LL-NH2; N-terminus assumed) | 0.39 (≈ 0.704 µg/mL) | 1.56 (≈ 2.82 µg/mL) | 1.56 (≈ 2.82 µg/mL) | 0.78 (≈ 1.41 µg/mL) | 27.7 | 65.4 |
| CC[C@H](C)[C@H](NC(=O)[C@H](CCCCN)NC(=O)[C@H](CCC(=O)O)NC(=O)[C@H](CCCCN)NC(=O)[C@H](CO)NC(=O)[C@H](CCCCN)NC(=O)[C@H](CCCNC(=N)N)NC(=O)[C@H](Cc1ccccc1)NC(=O)[C@H](Cc1ccccc1)NC(=O)[C@H](CC(=O)O)NC(=O)CNC(=O)[C@H](CC(C)C)NC(=O)[C@@H](N)CC(C)C)C(=O)NCC(=O)N[C@@H](CCCCN)C(=O)N[C@@H](CCC(=O)O)C(=O)N[C@@H](Cc1ccccc1)C(=O)N[C@@H](CCCCN)C(=O)N[C@@H](CCCNC(=N)N)C(=O)N[C@H](C(=O)N[C@H](C(=O)N[C@@H](CCC(N)=O)C(=O)N[C@@H](CCCNC(=N)N)C(=O)N[C@H](C(=O)N[C@@H](CCCCN)C(=O)N[C@@H](CC(=O)O)C(=O)N[C@@H](Cc1ccccc1)C(=O)N[C@@H](CC(C)C)C(=O)N[C@@H](CCCNC(=N)N)C(=O)N[C@@H](CC(N)=O)C(=O)N[C@@H](CC(C)C)C(=O)N[C@H](C(=O)N1CCC[C@H]1C(=O)N[C@@H](CCCNC(=N)N)C(=O)N[C@H](C(=O)N[C@@H](CCC(=O)O)C(=O)N[C@@H](CO)C(N)=O)[C@@H](C)O)C(C)C)[C@@H](C)CC)C(C)C)[C@@H](C)CC [LL-37, reference compound] | 1.56 (≈ 7.01 µg/mL) | 6.25 (≈ 28.1 µg/mL) | 3.125 (≈ 14 µg/mL) | 3.125 (≈ 14 µg/mL) |  |  |
| FVQWFSKFLGRIL-NH2 [Temporin L, reference compound] | 12.5 | 25 | 25 | 25 |  |  |
| LKLLKKLLKKLLKLL-NH2 [L-K6L9] | 0.39 | 3.125 | 1.56 | 3.125 |  |  |
